Test results reported in patent US8680094B2, “1, 4-benzoxazine compounds and derivatives thereof as therapeutic drugs for the treatment of neurodegenerative conditions” (Board of Regents, The University of Texas System, priority 2008, dated 2014).

Assays:
[1] = tested on: cerebellar granule neurons; experiment: Effect of inhibition of signal transduction pathways on neuroprotection by 1,4-benzoxazines in LK-treated cerebellar granule neurons; type: cell-based, rat; details: LK medium, 24 h; for effect of pharmacological inhibition of the MEK-ERK and PI-3K-Akt pathways on neuroprotective action: PD98059 40 μM, U0126 10 μM, Wortmannin 100 nm, Akt inhibitor-X 5 μM, DAPI
Experimental: Cultures of cerebellar granule neurons were switched to LK medium, LK medium containing of HSB-13, or LK medium containing HSB-13 and either PD98059 (40 μM), U0126 (10 μM), Wortmannin ([…]), Akt inhibitor-X (5 μM), KN-62 (10 μM), H89 (10 μM) and TSA (1 μM). Viability was quantified 24 h later by DAPI staining. The results were normalized to viability in control cultures which were switched to HK medium;
The Raf-MEK-ERK and P1-3 kinase-Akt signaling are two well-established and powerful anti-apoptotic pathways in mammalian cells that mediate the protective effects of a number of neurotrophic polypeptides, pharmacological agents, and neuroprotective compounds (D'Mello and Chin, 2005; Hetman et al., 2006). To determine whether either of these pathways was involved in the neuroprotective effect of 1,4-benzoxazines the inventors studied whether the pharmacological inhibition of these pathways affected their neuroprotective efficacy. […] Similarly, none of the compounds tested (the PI-3 kinase inhibitor, wortmannin, the Akt inhibitor X, or a commercially available inhibitor of Akt) reduced the ability of HSB-13 to protect neurons against LK-induced apoptosis (FIG. 3). […] As observed for HSB-13, pharmacological inhibition of the MEK-ERK and PI-3K-Akt pathways had no effect on the neuroprotective actions of ASK-2a or HSB-22.
Treatment of cerebellar granule neurons with HK activates calcium-calmodulin kinase (CaMK) and inhibition of CaMK with pharmacological inhibitors such as KN-62 inhibits HK-mediated survival (See et al., 2001; Linseman et al., 2003; Morrison et al., 2006). […] The present inventors recognized that several investigators have shown that cyclic AMP analogs and pharmacological activators of protein kinase A promote survival of cerebellar granule neurons as well as other neuronal types in the absence of other survival-promoting stimuli (Rydel and Greene, 1988; D'Mello et al., 1993; Hanson et al., 1998). PKA-mediated neuronal survival is blocked by treatment with H89, a potent and selective PICA inhibitor (Li et al., 2000; Bhave and Hoffman, 2004). […] The inventors have previously reported that histone deacetylase inhibitors such as trichostatin A block the ability of HK to maintain the survival of cerebellar granule neurons (Salminen et al., 1998; Boutillier et al., 2002; Morrison et al., 2006).

[2] = tested on: c-jun; experiment: Western blot of c-jun expression in LK-treated cerebellar granule neurons; type: cell-based, rat; details: 25 μM, 3 h
Experimental: (§1) Cerebellar neuron cultures were treated for 3 h with HK, LK, or LK medium containing 25 μM HSB-13, 25 μM ASK-2a, or 25 μM HSB-22. Whole cell lysates were then prepared and subjected to Western blot analysis using antibodies against c-jun and ATF-3.
(§2) The culture medium was removed and the cells were washed twice with ice-cold phosphate-buffered saline (PBS) and lysed in lysis buffer [1% Triton, 20 mM Tris-HCl (pH 7.5), 150 mM NaCl, 1 mM Na2EDTA, 1 mM EGTA, 2.5 mM sodium pyrophosphate, 1 mM beta-glycerophosphate, 1 mM Na3VO4, 1 μg/mL leupeptin and 1 protease inhibitor mixture]. Protein concentrations were measured and normalized using Bradford protein assay reagent (Bio-Rad, Hercules, Calif., USA). Following normalization, 40 μg of protein was subjected to Western blotting. Immunoreactivity was examined by enhanced chemiluminescence (Amersham Bioscience, Piscataway, N.J., USA).
(§3) C-jun expression is induced in a variety of tissue culture and in vivo paradigms of neuronal apoptosis (Schenkel et al., 2004). […] Treatment with HSB-13 inhibited c-jun expression even lower that that seen in HK-treated cultures. […] The suppression of ATF-3 expression using siRNA inhibits LK-mediated death of cerebellar granule neurons has been previously been described by the present inventors (Chen et al., 2008a). […] As observed with c-jun, the suppression was most robust with HSB-13. As a result these compositions can inhibit the activity of c-jun and ATF-3, which in turn play a role in treating cancer and oncoproteins like c-jun.

[3] = tested on: ATF-3; experiment: Western blot of ATF-3 expression in LK-treated cerebellar granule neurons; type: cell-based, rat; details: 25 μM, 3 h
Experimental: as §1, §2, §3

[4] = tested on: HT-22 cells; experiment: HCA-induced toxicity in HT-22 neuroblastoma cells; type: cell-based, mouse
Experimental: FIGS. 6A and 6B show the effects of HSB-13 on HT-22 cells and the quantification of cell death. […] HT-22 cells were treated with no additives (Un), 1.5 mM HCA, or 1.5 mM HCA plus 25 μM HSB-13, 25 μM ASK-2a, and 25 μM HSB-22. In FIG. 6A, the appearance of the cultures at 24 h after treatment was visualized by phase-contrast microscopy (Phase). […] Viability was expressed as % of untreated cultures (control);
HT-22 cells were treated with no additives (Control), 2 mM HCA, or 2 mM HCA+25 μM HSB-13. The appearance of the cultures at 24 h after treatment is shown.
The mouse HT-22 neuroblastoma cell line was purchased from ATCC (Manassas, Va., USA) and cultured in Dulbecco's modified Eagle's medium (DMEM) with 4.5 g/L glucose (without sodium pyruvate) supplemented with 10% FBS, 100 units/ml penicillin and 100 μg/ml streptomycin. Cultures were plated at ˜30% confluence for HCA treatment. HCA was made as 150 mM stock solution adjusted to pH 7.5 and used at a final concentration of 1.5 mM.
Treatment of the mouse neuroblastoma HT-22 cell line with homocysteic acid (HCA) induces apoptosis through glutathione depletion and oxidative stress (Murphy et al. 1990; Ratan et al. 1994a, 1994b). The inventors studied whether HSB-13, HSB-22, and ASK-2a were protective in this paradigm of oxidative stress-induced neuronal death. HSB-13 prevents HCA-induced cell death. […] Thus, HSB-13, but not ASK-2a and HSB-22, is protective against oxidative stress-induced neuronal death.
Analysis in cultured cerebellar granule neurons identified HSB-13 as one with strong neuroprotective efficacy. We therefore selected HSB-13 to examine whether its protective effects extended to other neuronal types and apoptotic stimuli. Treatment of the hippocampally-derived neuroblastoma cell line, HT-22, with homocysteic acid (HCA) causes oxidative stress due to glutathione depletion leading to apoptosis (Murphy et al., 1990; Ratan et al., 1994a and 1994b).

[5] = any of the three doses examined (data not shown)

SMILES	effect of pharmacological inhibition of the MEK-ERK and PI-3K-Akt pathways on neuroprotective action [1]	induction of c-jun expression by LK [2]	LK-mediated increase in ATF-3 [3]	protection against HCA-induced cell death [4, 5]	neuroprotection in the presence of H89 ([1]; H89 10 μM (PKA inhibitor))	neuroprotection in the presence of KN-62 ([1]; KN-62 10 μM (CaMK inhibitor))	neuroprotection in the presence of TSA ([1]; TSA 1 μM (histone deacetylase inhibitor))	protection against HCA-induced cell death ([4]; 1.5 mM HCA, 5 μM compound, 24 h)	protection against HCA-induced cell death ([4]; 1.5 mM HCA, 25 μM compound, 24 h)	protection against HCA-induced cell death ([4]; 2 mM HCA, 5 uM compound)	HCA-induced cell death ([4]; 2 mM HCA, 25 uM compound, 24 h (FIG. 9))
O=C1Nc2ccccc2OC1=Cc1cc(Br)c(O)c(Br)c1 [ASK-2a]	no effect	inhibited	inhibited	failed to protect							
Nc1ccc2c(c1)NC(=O)/C(=C/c1cc(Br)c(O)c(Br)c1)O2 [HSB-13, (Z)-6-amino-2-(3,′5′-dibromo-4′-hydrozybenzylidene)-2H-benzo[b][1,4]oxazin-3(4H)-one]	no effect	inhibited	inhibited		no effect	not, however, reduced	did not inhibit	robust protection	highest protection	not protective	prevented
O=C1Nc2cc(Cl)ccc2O/C1=C\c1cc(Br)c(O)c(Br)c1 [HSB-22]	no effect	inhibited	inhibited	failed to protect							
